From patent US12227501B2, “3-amino-2-[2-(acylamino)pyridin-4-yl]-1,5,6,7-tetrahydro-4h-pyrrolo[3,2-c]pyridin-4-one as CSNK1 inhibitors” (Bayer Aktiengesellschaft, priority 2019, dated 2025)
pIC50: −log10 of the molar value. Like-named read-outs stand apart in the source and are kept apart here.

What was measured:
Type in all cases: biochemical
[1] = target: wild-type Epidermal Growth Factor Receptor (EGFR) (Homo sapiens (Human), UniProt P00533); assay: WT-EGFR Kinase Assay (TR-FRET, 2 mM ATP)
[2] = target: T1, human CSNK1A1 (Homo sapiens (Human), UniProt P48729); assay: CSNK1A1 Assay 1 (ADP-Glo, 1 μM ATP); details: substrate Btn-Ahx-SGSEGDSESGEEEG, read-out: CSNK1A1 Assay 1 IC50 [mol/l] (median)
T1 sequence (P48729 whole entry): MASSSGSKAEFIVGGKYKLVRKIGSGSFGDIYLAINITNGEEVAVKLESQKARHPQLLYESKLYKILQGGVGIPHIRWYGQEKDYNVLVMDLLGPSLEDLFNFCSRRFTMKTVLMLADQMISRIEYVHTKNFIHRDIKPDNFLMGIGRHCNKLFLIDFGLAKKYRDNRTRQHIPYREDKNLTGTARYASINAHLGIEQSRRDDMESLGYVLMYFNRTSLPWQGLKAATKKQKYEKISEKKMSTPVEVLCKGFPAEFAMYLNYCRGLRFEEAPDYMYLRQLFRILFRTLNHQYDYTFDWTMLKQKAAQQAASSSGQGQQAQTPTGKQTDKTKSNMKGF
Procedure: CSNK1A1-inhibitory activity of compounds of the present invention in presence of 1 μM adenosine-tri-phosphate (ATP) was quantified employing the CSNK1A1 assay as described in the following paragraphs. In essence, the enzyme activity is measured by quantification of the adenosine-di-phosphate (ADP), which is generated as a co-product of the enzyme reaction, via the “ADP-Glo™ Kinase Assay” kit from the company Promega. This detection system works as follows: In a first step the ATP not consumed in the kinase reaction is quantitatively converted to cAMP employing an adenylate cyclase (“ADP-Glo-reagent”), then the adenylate cyclase is stopped and the ADP generated in the kinase reaction converted to ATP which generates in a luciferase-based reaction a glow-luminescence signal (“Kinase Detection Reagent”). Recombinant fusion protein of N-terminal Glutathion-S-Transferase (GST) and full-length human CSNK1A1, expressed by baculovirus infected insect cells and purified via Glutathion affinity chromatography, was purchased from Life Technologies (product no. PV4174) and used as enzyme. As substrate for the kinase reaction the biotinylated peptide Btn-Ahx-[…] (C-terminus in amide form) was used which can be purchased e.g. from the company Biosyntan (Berlin-Buch, Germany).
For the assay 50 nl of a 100 fold concentrated solution of the test compound in DMSO was pipetted into a white 1536-well microtiter plate (Greiner Bio-One, Frickenhausen, Germany), 2 μL of a solution of CSNK1A1 in aqueous assay buffer [50 mM HEPES pH 7.5, 10% (v/v) glycerol, 10 mM MgCl2, 50 mM NaCl, 1 mM dithiothreitol, 0.01% (w/v) bovine serum albumin, 0.01% (v/v) Triton X-100] were added and the mixture was incubated for 15 min at 22° C. to allow pre-binding of the test compounds to the enzyme before the start of the kinase reaction. […] The concentration of CSNK1A1 was adjusted depending of the activity of the enzyme lot and was chosen appropriate to have the assay in the linear range, a typical concentration is 0.15 ng/μL. The reaction was stopped by the addition of 2.5 μL of “ADP-Glo-reagent” (1:1.5 fold diluted with water) and the resulting mixture was incubated at 22° C. for 1 h to convert the ATP not consumed in the kinase reaction completely […]. Subsequently 2.5 μL of the “kinase detection reagent” (1.2 fold more concentrated than recommended by the producer) were added, the resulting mixture was incubated at 22° C. for 1 h and then the luminescence measured with a suitable measurement instrument (e.g. Viewlux™ from Perkin-Elmer). The amount of emitted light was taken as a measure for the amount of ADP generated and thereby for the activity of the CSNK1A1.

[3] = target: T1, human CSNK1A1; assay: CSNK1A1 High ATP Assay (ADP-Glo, 1 mM ATP); details: read-out: CSNK1A1 high ATP assay IC50 [mol/l] (median)
In short: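 Kinase activity taken as ADP generated, quantified by ADP-Glo luminescence after 1 h ATP depletion and 1 h detection at 22 °C. Enzyme is GST–full-length human CSNK1A1 (insect cell-expressed), pre-bound to compound for 15 min, with phosphopeptide substrate and 1 mM ATP.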

[4] = target: human CSNK1D (Homo sapiens (Human), UniProt P48730); assay: CSNK1D Assay (ADP-Glo, 1 μM ATP); details: read-out: CSNK1D IC50 [mol/l] (median)
Sequence of human CSNK1D (P48730 whole entry): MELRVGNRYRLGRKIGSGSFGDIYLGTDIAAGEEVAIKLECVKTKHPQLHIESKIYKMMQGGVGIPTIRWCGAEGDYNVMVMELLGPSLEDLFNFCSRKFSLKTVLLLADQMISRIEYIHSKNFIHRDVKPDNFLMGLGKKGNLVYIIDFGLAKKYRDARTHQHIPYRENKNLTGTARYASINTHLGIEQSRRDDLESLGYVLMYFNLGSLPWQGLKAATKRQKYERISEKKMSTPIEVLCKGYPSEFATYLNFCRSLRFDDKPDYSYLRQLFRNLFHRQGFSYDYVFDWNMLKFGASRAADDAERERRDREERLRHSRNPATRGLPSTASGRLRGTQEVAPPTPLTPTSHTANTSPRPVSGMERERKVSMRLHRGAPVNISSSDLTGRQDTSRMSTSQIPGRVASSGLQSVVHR
In short: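 Activity is read as ADP produced, by ADP-Glo luminescence after 1 h steps at 22 °C. The reaction uses 1 μM ATP, a biotinylated peptide and insect-cell-expressed GST–CSNK1D (about 0.5 ng/μL) in pH 7.5 HEPES buffer, with 15 min compound–enzyme preincubation.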

[5] = target: T1, human CSNK1A1; assay: CSNK1A1 Assay 2 (ADP-Glo, 1 μM ATP); details: substrate biotin-Ahx-KRRRAL-pS-VASLPGL, read-out: CSNK1A1 Assay 2 IC50 [mol/l] (median)
In short: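 Full-length human CSNK1A1 as an N-terminal GST fusion (baculovirus/insect cells) with biotinylated peptide substrate biotin-Ahx-KRRRAL-pS-VASLPGL and 1 μM ATP, in HEPES pH 7.5 buffer. Compounds were pre-incubated with enzyme (~0.0375 ng/μL) for 15 min at 22 °C. Generated ADP was read by ADP-Glo luminescence as the activity measure.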

[6] = read-out: EGFR Wildtyp- 2 mM ATP IC50 [mol/l] (median)
[7] = EGFR Wildtyp- 2 mM ATP IC50 [mol/l] (median)

Sequence of wild-type Epidermal Growth Factor Receptor (EGFR) (P00533 669-1210): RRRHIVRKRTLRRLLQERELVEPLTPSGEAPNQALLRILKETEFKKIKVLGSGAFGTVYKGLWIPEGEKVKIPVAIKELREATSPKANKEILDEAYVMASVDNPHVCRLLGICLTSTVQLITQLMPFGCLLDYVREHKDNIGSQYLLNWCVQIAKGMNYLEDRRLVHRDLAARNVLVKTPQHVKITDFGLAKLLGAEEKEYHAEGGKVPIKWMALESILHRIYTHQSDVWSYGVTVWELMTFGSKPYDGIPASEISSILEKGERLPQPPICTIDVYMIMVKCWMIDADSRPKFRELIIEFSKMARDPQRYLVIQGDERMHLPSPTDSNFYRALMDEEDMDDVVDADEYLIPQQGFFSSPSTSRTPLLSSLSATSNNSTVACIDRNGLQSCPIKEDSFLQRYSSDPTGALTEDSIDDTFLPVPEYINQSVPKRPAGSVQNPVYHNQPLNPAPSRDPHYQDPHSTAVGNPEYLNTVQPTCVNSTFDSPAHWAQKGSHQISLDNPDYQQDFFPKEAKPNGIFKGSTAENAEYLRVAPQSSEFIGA

Row | Compound | pIC50 [1, 6] | pIC50 [2] | pIC50 [3] | pIC50 [4] | pIC50 [1, 7] | pIC50 [5]
1 | Cc1cc(CC(=O)Nc2cc(-c3[nH]c4c(c3Nc3ccccc3)C(=O)N(C)CC4)ccn2)ccc1F [Example 3, N-[4-(3-anilino-5-methyl-4-oxo-4,5,6,7-tetrahydro-1H-pyrrolo[3,2-c]pyridin-2-yl)pyridin-2-yl]-2-(4-fluoro-3-methylphenyl)acetamide] | 5.67 | 8.37 | 7.11 | 8.25 | – | –
2 | CN1CCc2[nH]c(-c3ccnc(NC(=O)Cc4ccc(F)cc4)c3)c(Nc3ccccn3)c2C1=O [Example 12, 2-(4-fluorophenyl)-N-(4-{5-methyl-4-oxo-3-[(pyridin-2-yl)amino]-4,5,6,7-tetrahydro-1H-pyrrolo[3,2-c]pyridin-2-yl}pyridin-2-yl)acetamide] | < 4.70 | 8.63 | 8.28 | 7.99 | – | –
3 | CN1CCc2[nH]c(-c3ccnc(NC(=O)Cc4ccccc4)c3)c(Nc3ccccc3)c2C1=O [Example 2, N-[4-(3-anilino-5-methyl-4-oxo-4,5,6,7-tetrahydro-1H-pyrrolo[3,2-c]pyridin-2-yl)pyridin-2-yl]-2-phenylacetamide] | 5.93 | 8.40 | 6.94 | 8.27 | – | –
4 | CC1Cc2[nH]c(-c3ccnc(NC(=O)Cc4ccncc4)c3)c(Nc3ccccc3)c2C(=O)N1C (single isomer, unassigned; (+)) [Example 98, (+)-N-{4-[(6R*)-3-anilino-5,6-dimethyl-4-oxo-4,5,6,7-tetrahydro-1H-pyrrolo[3,2-c]pyridin-2-yl]pyridin-2-yl}-2-(pyridin-4-yl)acetamide] | – | – | 6.83 | 8.21 | 5.36 | 8.38
5 | CN1CCc2[nH]c(-c3ccnc(NC(=O)Cc4ccc(C(F)(F)F)cc4)c3)c(Nc3ccccc3)c2C1=O [Example 66, N-[4-(3-anilino-5-methyl-4-oxo-4,5,6,7-tetrahydro-1H-pyrrolo[3,2-c]pyridin-2-yl)pyridin-2-yl]-2-[4-(trifluoromethyl)phenyl]acetamide] | 5.07 | – | 7.47 | 8.25 | – | 8.56
6 | CC(C(=O)Nc1cc(-c2[nH]c3c(c2Nc2ccccc2)C(=O)N(C)C(C)C3)ccn1)c1ccc(F)cc1 (single isomer, unassigned; (+)) [Example 92, (+)-N-{4-[3-anilino-5,6-dimethyl-4-oxo-4,5,6,7-tetrahydro-1H-pyrrolo[3,2-c]pyridin-2-yl]pyridin-2-yl}-2-(4-fluorophenyl)propanamide] | – | – | 6.64 | 7.97 | < 4.70 | 8.33
7 | O=C(Cc1ccc(F)cc1)Nc1cc(-c2[nH]c3c(c2Nc2ccccc2Cl)C(=O)NCC3)ccn1 [Example 13, N-{4-[3-(2-chloroanilino)-4-oxo-4,5,6,7-tetrahydro-1H-pyrrolo[3,2-c]pyridin-2-yl]pyridin-2-yl}-2-(4-fluorophenyl)acetamide] | 5.98 | – | 7.43 | 8.15 | – | 8.72
8 | CC1(C)Cc2[nH]c(-c3ccnc(NC(=O)Cc4ccc(F)cc4)c3)c(Nc3cccc(F)c3)c2C(=O)N1 [Example 119, N-{4-[3-(3-fluoroanilino)-6,6-dimethyl-4-oxo-4,5,6,7-tetrahydro-1H-pyrrolo[3,2-c]pyridin-2-yl]pyridin-2-yl}-2-(4-fluorophenyl)acetamide] | 5.60 | – | 6.45 | 7.97 | – | 8.25
9 | CC(C(=O)Nc1cc(-c2[nH]c3c(c2Nc2ccccc2F)C(=O)N(C)CC3)ccn1)c1ccc(F)cc1 (single isomer, unassigned) [Example 42, N-{4-[3-(2-fluoroanilino)-5-methyl-4-oxo-4,5,6,7-tetrahydro-1H-pyrrolo[3,2-c]pyridin-2-yl]pyridin-2-yl}-2-(4-fluorophenyl)propanamide] | < 4.70 | – | 7.24 | 8.31 | – | 8.62
10 | CN1CCc2[nH]c(-c3ccnc(NC(=O)C(CC(F)F)c4ccc(F)cc4)c3)c(Nc3ccccc3)c2C1=O (single isomer, unassigned; (-)) [Example 62, (−)-N-[4-(3-anilino-5-methyl-4-oxo-4,5,6,7-tetrahydro-1H-pyrrolo[3,2-c]pyridin-2-yl)pyridin-2-yl]-4,4-difluoro-2-(4-fluorophenyl)butanamide] | – | – | 5.82 | 7.53 | < 4.70 | 7.68
11 | O=C(Cc1ccc(F)cc1)Nc1cc(-c2[nH]c3c(c2Nc2cccc(F)c2Cl)C(=O)NCC3)ccn1 [Example 87, N-{4-[3-(2-chloro-3-fluoroanilino)-4-oxo-4,5,6,7-tetrahydro-1H-pyrrolo[3,2-c]pyridin-2-yl]pyridin-2-yl}-2-(4-fluorophenyl)acetamide] | 6.80 | – | 7.19 | 8.22 | – | 8.59
12 | CC1(C)Cc2[nH]c(-c3ccnc(NC(=O)C(CC(F)F)c4ccc(F)cc4)c3)c(Nc3cccc(F)c3Cl)c2C(=O)N1 (racemic) [Example 109, N-{4-[3-(2-chloro-3-fluoroanilino)-6,6-dimethyl-4-oxo-4,5,6,7-tetrahydro-1H-pyrrolo[3,2-c]pyridin-2-yl]pyridin-2-yl}-4,4-difluoro-2-(4-fluorophenyl)butanamide] | – | – | 6.87 | 7.85 | < 4.70 | 7.79
13 | O=C1NC2(CCC2)Cc2[nH]c(-c3ccnc(NC(=O)C(CC(F)F)c4ccc(F)cc4)c3)c(Nc3cccc(F)c3Cl)c21 (single isomer, unassigned; enantiomer 1) [Example 124, (−)-N-{4-[3′-(2-chloro-3-fluoroanilino)-4′-oxo-1′,4′,5′,7′-tetrahydrospiro[cyclobutane-1,6′-pyrrolo[3,2-c]pyridin]-2′-yl]pyridin-2-yl}-4,4-difluoro-2-(4-fluorophenyl)butanamide (Enantiomer 1)] | – | – | < 5.24 | 7.23 | < 4.70 | 7.13
